One experiment concerns HCV GT1b(Con1) replicon. Nature of the experiment: HCV replicon luciferase reporter assay, genotype 1b. In kind it is cell-based, HCV genotype 1b. The following applies: Hepatitis C virus, 72 h, HUH-7 cells, Renilla luciferase, 3 days incubation. The text has this: An HCV GT1b(Con1) replicon cell system was established as described by Lohmann V, Korner F, Koch J, Herian U, Theilmann L, Bartenschlager R., Science 285(5424):110-3 (1999) and modified to introduce a luciferase reporter (Krieger N, Lohmann V, and Bartenschlager R, J. Virol. 75(10):4614-4624 (2001)). cDNA encoding a humanized form of the Renilla luciferase gene, and a linker sequence fused directly to the 3′-end of the luciferase gene were introduced into the replicon construct using an Asc1 restriction site located in core, directly upstream of the neomycin marker gene. The adaptive mutation at position 1179 (serine to isoleucine) was also introduced (Blight K J, Kolykhalov, A A, Rice, C M, Science 290(5498):1972-1974). A stable cell line constitutively expressing this HCV replicon construct was generated by first linearizing plasmid DNAs with ScaI. RNA transcripts were synthesized in vitro using the T7 MegaScript transcription kit (Ambion, Austin, Tex.) according to manufacturer's directions. In vitro transcripts of the cDNA were transfected into the human hepatoma cell line, HUH-7. […] Resulting cell lines were characterized for positive and negative strand RNA production and protein production over time.
(§1) HCV replicon luciferase assays were developed to monitor the inhibitory effects of compounds described in the disclosure on HCV genotypes 1a and 1b viral replication. HUH-7 cells, constitutively expressing the HCV replicon, were grown in Dulbecco's Modified Eagle Media (DMEM) (Gibco-BRL) containing 10% Fetal calf serum (FCS) (Sigma) and 1 mg/mL G418 (Gibco-BRL). Compounds were serially diluted 3 folds in DMSO for a twenty-point titration and subsequently transferred to sterile 384-well tissue-culture treated plates (Corning cat #3571). The plates were then seeded with 50 μL of cells at a density of 3.0×10^3 cells/well in DMEM containing 4% FCS (final DMSO concentration at 0.5%). After 3 days incubation at 37° C., cells were analyzed for Renilla Luciferase activity using the EnduRen as substrate (Promega cat #E6485). The EnduRen substrate was diluted in DMEM and then added to the plates to a final concentration of 7.5 μM. The plates were incubated for 2 hrs at 37° C. and then read immediately for 30 seconds with Viewlux Imager (PerkinElmer) using a luminescence program. To assess cytotoxicity of compounds, CC50 values were generated by multiplexing the EnduRen-containing plates with Cell Titer-Blue (Promega, cat #G8082). Cell-Titer Blue (3 μL) was added to each well and incubated for 8 hrs at 37° C. The fluorescence signal from each well was read, with an excitation wavelength at 525/10 nm and an emission wavelength of 598/10 nm, using the Viewlux Imager.
(§2) The EC50 values for compounds were calculated by using a four-parameter logistic equation: y=A+[…])/(1+((C/x)^D))), where A and B denotes minimal and maximal % inhibition, respectively, C is the EC50, D is the hill slope and x represents compound concentration.
In general terms: A replicon is a self-replicating genome or part of one, used to study replication in cells.

The test system of a further experiment is HCV GT1a(H77) replicon. Nature of the experiment: HCV replicon luciferase reporter assay, genotype 1a. It is filed as cell-based, HCV genotype 1a. The conditions noted are these: Hepatitis C virus, 72 h, HUH-7 cells, Renilla luciferase, 3 days incubation.
From the text: A stable HCV GT1a(H77) replicon luciferase reporter cell line (Yanagi M, Purcell RH, Emerson S U, et al. Transcripts from a single full-length cDNA clone of hepatitis C virus are infectious when directly transfected into the liver of a chimpanzee. Proc Natl Acad Sci USA 1997; 94(16):8738-8743) was generated as described previously for the genotype 1b(Con1) replicon luciferase cell line. The replicon construct was modified by introducing mutations into the genes encoding the NS3 helicase domain (proline replaced by leucine at position 1496) and NS5A (serine to isoleucine at position 2204) to improve replication in cell culture.
as §1, §2

Broadly, the EC50 is the concentration at which the effect is half-maximal.

Like-named read-outs stand apart in the source and are kept apart here.

For the molecule `CC(C)Oc1ccc(-c2cc(O[C@@H]3C[C@H]4C(=O)N[C@]5(C(=O)NS(=O)(=O)C6(C)CC6)C[C@H]5/C=C\CC[C@H](C)C[C@@H](C)[C@H](NC(=O)OC(C)(C)C(F)(F)F)C(=O)N4C3)cc(-c3cncs3)n2)cc1` [Compound 1004, 1,1,1-trifluoro-2-methylpropan-2-yl ((2R,6S,7R,9S,13aS,14aR,16aS,Z)-2-((2-(4-isopropoxyphenyl)-6-(thiazol-5-yl)pyridin-4-yl)oxy)-7,9-dimethyl-14a-(((1-methylcyclopropyl)sulfonyl)carbamoyl)-5,16-dioxo-1,2,3,5,6,7,8,9,10,11,13a,14,14a,15,16,16a-hexadecahydrocyclopropa[e]pyrrolo[1,2-a][1,4]diazacyclopentadecin-6-yl)carbamate], the EC50 in the experiment with HCV GT1b(Con1) replicon (read-out: LE_1b (EC50, range)) lay in the range of 1.01 to 5 nM; in the experiment on HCV GT1a(H77) replicon (read-out: LE_1a (EC50, range)) it was 5.01 to 35 nM.
`CC(C)Oc1ccc(-c2cc(O[C@@H]3C[C@H]4C(=O)N[C@]5(C(=O)NS(=O)(=O)C6(C)CC6)C[C@H]5/C=C\CC[C@@H](C)C[C@@H](C)[C@H](NC(=O)OC(C)(C)C(F)(F)F)C(=O)N4C3)cc(-c3cccnc3)n2)cc1` [Compound 1005, 1,1,1-trifluoro-2-methylpropan-2-yl ((2R,6S,7R,9R,13aS,14aR,16aS,Z)-2-((6-(4-isopropoxyphenyl)-[2,3′-bipyridin]-4-yl)oxy)-7,9-dimethyl-14a-(((1-methylcyclopropyl)sulfonyl)carbamoyl)-5,16-dioxo-1,2,3,5,6,7,8,9,10,11,13a,14,14a,15,16,16a-hexadecahydrocyclopropa[e]pyrrolo[1,2-a][1,4]diazacyclopentadecin-6-yl)carbamate]: the EC50 in the experiment with HCV GT1b(Con1) replicon (read-out: LE_1b (EC50)) was 1.71 nM; in the experiment with HCV GT1b(Con1) replicon (read-out: LE_1b (EC50, range)), 1.01 to 5 nM; with HCV GT1a(H77) replicon (read-out: LE_1a (EC50)), 1.48 nM; in the experiment on HCV GT1a(H77) replicon (read-out: LE_1a (EC50, range)), 1.01 to 5 nM.
With `CC(C)Oc1ccc(-c2cc(O[C@@H]3C[C@H]4C(=O)N[C@]5(C(=O)NS(=O)(=O)C6(C)CC6)C[C@H]5/C=C\CC[C@H](C)C[C@@H](C)[C@H](NC(=O)OC(C)(C)C(F)(F)F)C(=O)N4C3)cc(-c3cccnc3)n2)cc1` [Compound 1006, 1,1,1-trifluoro-2-methylpropan-2-yl ((2R,6S,7R,9S,13aS,14aR,16aS,Z)-2-((6-(4-isopropoxyphenyl)-[2,3′-bipyridin]-4-yl)oxy)-7,9-dimethyl-14a-(((1-methylcyclopropyl)sulfonyl)carbamoyl)-5,16-dioxo-1,2,3,5,6,7,8,9,10,11,13a,14,14a,15,16,16a-hexadecahydrocyclopropa[e]pyrrolo[1,2-a][1,4]diazacyclopentadecin-6-yl)carbamate], the EC50 in the experiment with HCV GT1b(Con1) replicon (read-out: LE_1b (EC50, range)) lay in the range of 5.01 to 35 nM; in the experiment with HCV GT1a(H77) replicon (read-out: LE_1a (EC50, range)), 5.01 to 35 nM.
Turning to `CC(C)Oc1ccc(-c2cc(O[C@@H]3C[C@H]4C(=O)N[C@]5(C(=O)NS(=O)(=O)C6(C)CC6)C[C@H]5/C=C\CC[C@@H](C)C[C@@H](C)[C@H](NC(=O)OC(C)(C)C(F)(F)F)C(=O)N4C3)cc(-c3nccs3)n2)cc1` [Compound 1007, 1,1,1-trifluoro-2-methylpropan-2-yl ((2R,6S,7R,9R,13aS,14aR,16aS,Z)-2-((2-(4-isopropoxyphenyl)-6-(thiazol-2-yl)pyridin-4-yl)oxy)-7,9-dimethyl-14a-(((1-methylcyclopropyl)sulfonyl)carbamoyl)-5,16-dioxo-1,2,3,5,6,7,8,9,10,11,13a,14,14a,15,16,16a-hexadecahydrocyclopropa[e]pyrrolo[1,2-a][1,4]diazacyclopentadecin-6-yl)carbamate], the concentration giving a half-maximal response (EC50) in the experiment on HCV GT1b(Con1) replicon (read-out: LE_1b (EC50, range)) was in the range of 1.01 to 5 nM; in the experiment on HCV GT1a(H77) replicon (read-out: LE_1a (EC50, range)), 1.01 to 5 nM.
With `CC(C)Oc1ccc(-c2cc(O[C@@H]3C[C@H]4C(=O)N[C@]5(C(=O)NS(=O)(=O)C6(C)CC6)C[C@H]5/C=C\CC[C@H](C)C[C@@H](C)[C@H](NC(=O)OC(C)(C)C(F)(F)F)C(=O)N4C3)cc(-c3nccs3)n2)cc1` [Compound 1008, 1,1,1-trifluoro-2-methylpropan-2-yl ((2R,6S,7R,9S,13aS,14aR,16aS,Z)-2-((2-(4-isopropoxyphenyl)-6-(thiazol-2-yl)pyridin-4-yl)oxy)-7,9-dimethyl-14a-(((1-methylcyclopropyl)sulfonyl)carbamoyl)-5,16-dioxo-1,2,3,5,6,7,8,9,10,11,13a,14,14a,15,16,16a-hexadecahydrocyclopropa[e]pyrrolo[1,2-a][1,4]diazacyclopentadecin-6-yl)carbamate], the EC50 with HCV GT1b(Con1) replicon (read-out: LE_1b (EC50, range)) lay in the range of 1.01 to 5 nM; in the experiment on HCV GT1a(H77) replicon (read-out: LE_1a (EC50, range)), 5.01 to 35 nM.
The like results for `CC(C)Oc1ccc(-c2cc(O[C@@H]3C[C@H]4C(=O)N[C@]5(C(=O)NS(=O)(=O)C6(C)CC6)C[C@H]5/C=C\CC[C@@H](C)C[C@@H](C)[C@H](NC(=O)OC(C)(C)C(F)(F)F)C(=O)N4C3)cc(-c3ccncc3)n2)cc1` [Compound 1009, 1,1,1-trifluoro-2-methylpropan-2-yl ((2R,6S,7R,9R,13aS,14aR,16aS,Z)-2-((6-(4-isopropoxyphenyl)-[2,4′-bipyridin]-4-yl)oxy)-7,9-dimethyl-14a-(((1-methylcyclopropyl)sulfonyl)carbamoyl)-5,16-dioxo-1,2,3,5,6,7,8,9,10,11,13a,14,14a,15,16,16a-hexadecahydrocyclopropa[e]pyrrolo[1,2-a][1,4]diazacyclopentadecin-6-yl)carbamate] were, in that order, 1.01 to 5 nM and 1.01 to 5 nM.
The like results for `CC(C)Oc1ccc(-c2cc(O[C@@H]3C[C@H]4C(=O)N[C@]5(C(=O)NS(=O)(=O)C6(C)CC6)C[C@H]5/C=C\CC[C@H](C)C[C@@H](C)[C@H](NC(=O)OC(C)(C)C(F)(F)F)C(=O)N4C3)cc(-c3ccncc3)n2)cc1` [Compound 1010, 1,1,1-trifluoro-2-methylpropan-2-yl ((2R,6S,7R,9S,13aS,14aR,16aS,Z)-2-((6-(4-isopropoxyphenyl)-[2,4′-bipyridin]-4-yl)oxy)-7,9-dimethyl-14a-(((1-methylcyclopropyl)sulfonyl)carbamoyl)-5,16-dioxo-1,2,3,5,6,7,8,9,10,11,13a,14,14a,15,16,16a-hexadecahydrocyclopropa[e]pyrrolo[1,2-a][1,4]diazacyclopentadecin-6-yl)carbamate] were, in that order, 5.01 to 35 nM and 5.01 to 35 nM.
Taken in the same sequence, the figures for `COc1cccc(-c2cc(O[C@@H]3C[C@H]4C(=O)N[C@]5(C(=O)NS(=O)(=O)C6(C)CC6)C[C@H]5/C=C\CC[C@@H](C)C[C@@H](C)[C@H](NC(=O)OC(C)(C)C(F)(F)F)C(=O)N4C3)cc(-c3ccc(OC(C)C)cc3)n2)n1` [Compound 1011, 1,1,1-trifluoro-2-methylpropan-2-yl ((2R,6S,7R,9R,13aS,14aR,16aS,Z)-2-((6-(4-isopropoxyphenyl)-6′-methoxy-[2,2′-bipyridin]-4-yl)oxy)-7,9-dimethyl-14a-(((1-methylcyclopropyl)sulfonyl)carbamoyl)-5,16-dioxo-1,2,3,5,6,7,8,9,10,11,13a,14,14a,15,16,16a-hexadecahydrocyclopropa[e]pyrrolo[1,2-a][1,4]diazacyclopentadecin-6-yl)carbamate] were 1.01 to 5 nM and 1.01 to 5 nM.

These data come from patent US9334279B2, “Hepatitis C virus inhibitors” (BRISTOL-MYERS SQUIBB COMPANY, priority 2012, dated 2016).
